The source of these data is patent publication US10519114B2, “Peptidomimetics and methods of using the same” (The Regents of the University of Michigan, priority 2016, dated 2019).

By Ki is commonly meant the equilibrium dissociation constant of an inhibitor or competing ligand from its target. Higher therefore signals a looser hold on the target. By EC50 is commonly meant the concentration at which the effect is half-maximal. Higher therefore signals a less potent agent. As usually defined, the Emax is the size of the effect at its maximum, as opposed to the concentration needed.

T1 sequence (P33535 whole entry): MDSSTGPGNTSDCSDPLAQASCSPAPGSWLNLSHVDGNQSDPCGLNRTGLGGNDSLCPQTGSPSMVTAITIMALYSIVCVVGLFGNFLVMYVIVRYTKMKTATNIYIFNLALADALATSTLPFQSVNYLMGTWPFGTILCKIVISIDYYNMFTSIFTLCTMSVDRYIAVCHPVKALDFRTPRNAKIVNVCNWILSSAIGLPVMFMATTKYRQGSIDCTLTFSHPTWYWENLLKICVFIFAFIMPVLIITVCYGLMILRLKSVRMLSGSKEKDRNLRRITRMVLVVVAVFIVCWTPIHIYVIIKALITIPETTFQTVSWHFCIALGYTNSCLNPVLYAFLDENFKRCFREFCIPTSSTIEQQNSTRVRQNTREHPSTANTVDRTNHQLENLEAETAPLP
T3 sequence (P41145 whole entry): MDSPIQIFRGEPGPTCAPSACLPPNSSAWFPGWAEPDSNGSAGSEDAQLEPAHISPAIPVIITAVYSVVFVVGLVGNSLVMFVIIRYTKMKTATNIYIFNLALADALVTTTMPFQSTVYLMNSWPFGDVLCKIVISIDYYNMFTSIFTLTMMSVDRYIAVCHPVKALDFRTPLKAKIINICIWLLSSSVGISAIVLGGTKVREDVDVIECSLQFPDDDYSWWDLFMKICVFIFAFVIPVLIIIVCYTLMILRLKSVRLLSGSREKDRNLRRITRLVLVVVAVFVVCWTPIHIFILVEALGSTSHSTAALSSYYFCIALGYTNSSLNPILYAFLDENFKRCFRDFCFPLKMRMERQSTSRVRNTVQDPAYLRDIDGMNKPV

One test addresses T1, rat μ (C6-MOR) opioid receptor (Rattus norvegicus, UniProt P33535).
T1 construct: expressed in transfected cells
Put plainly: Radioligand binding assay, [3H]diprenorphine displacement, MOR. As to conditions: displacement of 0.2 nM [3H]diprenorphine, C6-MOR membranes; mean ± standard error. The method, then:
(§1) In Vitro Pharmacology-Cell Lines and Membrane Preparations. All tissue culture reagents were purchased from Gibco Life Sciences (Grand Island, N.Y., U.S.). C6-rat glioma cells stably transfected with a rat μ (C6-MOR) or rat δ (C6-DOR) opioid receptor20 and Chinese hamster ovary (CHO) cells stably expressing a human K (CHO-KOR) opioid receptor21 were used for all in vitro assays. Cells were grown to confluence at 37° C. in 5% CO2 in Dulbecco's modified Eagle medium containing 10% fetal bovine serum and 5% penicillin/streptomycin. Membranes were prepared by washing confluent cells three times with ice cold phosphate buffered saline (0.9% NaCl, 0.61 mM Na2HPO4, 0.38 mM KH2PO4, pH 7.4). Cells were detached from the plates by incubation in warm harvesting buffer (20 mM HEPES, 150 mM NaCl, 0.68 mM EDTA, pH 7.4) and pelleted by centrifugation at 200 g for 3 min. The cell pellet was suspended in ice-cold 50 mM Tris-HCl buffer, pH 7.4, and homogenized with a Tissue Tearor (Biospec Products, Inc., Bartlesville, Okla., U.S.) for 20 s at setting 4. The homogenate was centrifuged at 20 000 g for 20 min at 4° C., and the pellet was rehomogenized in 50 mM Tris-HCl with a Tissue Tearor for 10 s at setting 2, followed by recentrifugation. The final pellet was resuspended in 50 mM Tris-HCl and frozen in aliquots at […]. Protein concentration was determined via Bradford assay using bovine serum albumin as the standard.
(§2) Radioligand Binding Assays. Radioactive compounds were purchased from Perkin-Elmer (Waltham, Mass., U.S.). Opioid ligand binding assays were performed using competitive displacement of 0.2 nM [3H]diprenorphine (250 μCi, 1.85 TBq/mmol) by the test compound from membrane preparations containing opioid receptors. The assay mixture, containing membrane suspension (20 μg protein/tube) in 50 mM Tris-HCl buffer (pH 7.4), [3H]diprenorphine, and various concentrations of test peptide, was incubated at room temperature for 1 h to allow binding to reach equilibrium. The samples were rapidly filtered through Whatman GF/C filters using a Brandel harvester (Brandel, Gaithersburg, Md., U.S.) and washed three times with 50 mM Tris-HCl buffer. The radioactivity retained on dried filters was determined by liquid scintillation counting after saturation with EcoLume liquid scintillation cocktail in a Wallac 1450 MicroBeta (Perkin-Elmer, Waltham, Mass., U.S.). Nonspecific binding was determined using 10 μM naloxone. Inhibitory constant (Ki) values were calculated using nonlinear regression analysis to fit a logistic equation to the competition data using GraphPad Prism, version 5.01, for Windows (GraphPad Software Inc., La Jolla, Calif.). The results presented are the mean±standard error from at least three separate assays performed in duplicate.
Turning to `CC(=O)N1CC[C@@H](NC(=O)[C@@H](N)Cc2c(C)cc(O)cc2C)c2cc(CN3CCc4cccc(C(F)(F)F)c4C3)ccc21` [Compound 1066], the Ki amounted to 0.16 ± 0.01 nM.
With `Cc1cc(O)cc(C)c1C[C@H](N)C(=O)N(C)[C@@H]1CCNc2ccc(Cc3ccccc3)cc21` [Compound 1001], affinity was put at a Ki of 0.9 ± 0.3 nM.
The molecule `CCCCCc1ccc2c(c1)[C@H](NC(=O)[C@@H](N)Cc1c(C)cc(O)cc1C)CCN2` [Compound 1013] had a Ki of 0.22 ± 0.09 nM.
The molecule `CCCc1cc(Br)cc2c1NCC[C@H]2NC(=O)[C@@H](N)Cc1c(C)cc(O)cc1C` [Compound 1058] yielded a Ki of 21.7 ± 8.06 nM.

For a further test, the target named is T2, rat δ (C6-DOR) opioid receptor (Rattus norvegicus, UniProt P33533).
T2 construct: expressed in transfected cells
T2 sequence (P33533 whole entry): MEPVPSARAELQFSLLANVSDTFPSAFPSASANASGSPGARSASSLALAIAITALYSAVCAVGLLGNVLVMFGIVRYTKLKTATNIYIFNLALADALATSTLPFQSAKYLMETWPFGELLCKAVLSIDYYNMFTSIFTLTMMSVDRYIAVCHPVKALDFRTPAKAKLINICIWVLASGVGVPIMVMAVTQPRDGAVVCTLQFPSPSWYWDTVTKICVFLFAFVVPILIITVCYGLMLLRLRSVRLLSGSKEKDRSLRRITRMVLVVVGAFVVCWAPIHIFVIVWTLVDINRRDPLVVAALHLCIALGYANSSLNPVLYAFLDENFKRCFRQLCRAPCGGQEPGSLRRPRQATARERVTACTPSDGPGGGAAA
Put plainly: Radioligand binding assay, [3H]diprenorphine displacement, DOR. As to conditions: displacement of 0.2 nM [3H]diprenorphine, C6-DOR membranes; mean ± standard error. The method, then: as §1, §2
The molecule `CC(=O)N1CC[C@@H](NC(=O)[C@@H](N)Cc2c(C)cc(O)cc2C)c2cc(CN3CCc4cccc(C(F)(F)F)c4C3)ccc21` [Compound 1066] gave a Ki of 3.05 ± 0.88 nM.
`Cc1cc(O)cc(C)c1C[C@H](N)C(=O)N(C)[C@@H]1CCNc2ccc(Cc3ccccc3)cc21` [Compound 1001] returned a Ki of 15.7 ± 3.7 nM.
On the same count and under the same terms, the value for `CCCCCc1ccc2c(c1)[C@H](NC(=O)[C@@H](N)Cc1c(C)cc(O)cc1C)CCN2` [Compound 1013] was 8.81 ± 2.89 nM.
`CCCc1cc(Br)cc2c1NCC[C@H]2NC(=O)[C@@H](N)Cc1c(C)cc(O)cc1C` [Compound 1058] came in with a Ki of 45.9 ± 22.6 nM.

The next test has as its target T3, human κ (CHO-KOR) opioid receptor (Homo sapiens, UniProt P41145).
T3 construct: expressed in transfected cells
Nature of the test: Radioligand binding assay, [3H]diprenorphine displacement, KOR. To be noted: displacement of 0.2 nM [3H]diprenorphine, CHO-KOR membranes; mean ± standard error. The protocol: as §1, §2
The molecule `CC(=O)N1CC[C@@H](NC(=O)[C@@H](N)Cc2c(C)cc(O)cc2C)c2cc(CN3CCc4cccc(C(F)(F)F)c4C3)ccc21` [Compound 1066] displayed a Ki of 59.2 ± 12.4 nM.
On the same count and under the same terms, the value for `Cc1cc(O)cc(C)c1C[C@H](N)C(=O)N(C)[C@@H]1CCNc2ccc(Cc3ccccc3)cc21` [Compound 1001] was 116 ± 30 nM; that for `CCCCCc1ccc2c(c1)[C@H](NC(=O)[C@@H](N)Cc1c(C)cc(O)cc1C)CCN2` [Compound 1013] was 22.5 ± 10.3 nM; that for `CCCc1cc(Br)cc2c1NCC[C@H]2NC(=O)[C@@H](N)Cc1c(C)cc(O)cc1C` [Compound 1058] was 208 ± 16 nM.

A further test deals with T1, rat μ (C6-MOR) opioid receptor. Put plainly: Stimulation of [35S]GTPγS binding, MOR. The test is classed as biochemical. To be noted: [35S]GTPγS binding, C6-MOR membranes; mean ± standard error. The protocol: as §1
(§3) Stimulation of [^35S]GTPyS Binding. Agonist stimulation of [35S]guanosine 5′-O-[γ-thio]triphosphate ([^35S]GTPγS, 1250 Ci, 46.2 TBq/mmol) binding was measured as described previously Briefly, membranes (10-20 μg of protein/tube) were incubated 1 h at room temperature in GTPyS buffer (50 mM Tris-HCl, 100 mM NaCl, 5 mM MgCl2, pH 7.4) containing 0.1 nM [^35S]GTPγS, 30 μM guanosine diphosphate (GDP), and varying concentrations of test peptides. Peptide stimulation of [^35S]GTPyS was compared with 10 μM standard compounds [D-Ala^2,N-MePhe^4,Gly-ol]encephalin (DAMGO) at MOR, D-Pen^2,5-enkephalin (DPDPE) at DOR, or […] at KOR. The reaction was terminated by rapidly filtering through GF/C filters and washing 10 times with GTPyS buffer, and retained radioactivity was measured as described above. The results presented are the mean±standard error from at least three separate assays performed in duplicate; maximal stimulation was determined using nonlinear regression analysis with GraphPad Prism (GraphPad Software Inc., La Jolla, Calif.).
For orientation: GTPγS is a poorly hydrolysed GTP analogue; its binding reports G protein activation.
As to `CC(=O)N1CC[C@@H](NC(=O)[C@@H](N)Cc2c(C)cc(O)cc2C)c2cc(CN3CCc4cccc(C(F)(F)F)c4C3)ccc21` [Compound 1066], it took 1.25 ± 0.44 nM to reach a half-maximal effect (EC50).
On to `Cc1cc(O)cc(C)c1C[C@H](N)C(=O)N(C)[C@@H]1CCNc2ccc(Cc3ccccc3)cc21` [Compound 1001], for which a half-maximal effect (EC50) was put at 3 ± 0.31 nM.
As to `CCCCCc1ccc2c(c1)[C@H](NC(=O)[C@@H](N)Cc1c(C)cc(O)cc1C)CCN2` [Compound 1013], a half-maximal response (EC50) required 12 ± 5.77 nM.
`CCCc1cc(Br)cc2c1NCC[C@H]2NC(=O)[C@@H](N)Cc1c(C)cc(O)cc1C` [Compound 1058] gave an EC50 of 859 nM.

Still in this test, the particulars now being: [35S]GTPγS maximal stimulation compared with 10 μM standard DAMGO.
The molecule `CC(=O)N1CC[C@@H](NC(=O)[C@@H](N)Cc2c(C)cc(O)cc2C)c2cc(CN3CCc4cccc(C(F)(F)F)c4C3)ccc21` [Compound 1066] returned an Emax of 55.1 ± 2.83%.
In turn, `Cc1cc(O)cc(C)c1C[C@H](N)C(=O)N(C)[C@@H]1CCNc2ccc(Cc3ccccc3)cc21` [Compound 1001] registered an Emax of 80.6 ± 4.7%.
In turn, `CCCCCc1ccc2c(c1)[C@H](NC(=O)[C@@H](N)Cc1c(C)cc(O)cc1C)CCN2` [Compound 1013] displayed an Emax of 20.2 ± 7.11%.
For the molecule `CCCc1cc(Br)cc2c1NCC[C@H]2NC(=O)[C@@H](N)Cc1c(C)cc(O)cc1C` [Compound 1058], the Emax was found to be 12.6%.

The next test concerns the target T2, rat δ (C6-DOR) opioid receptor. Put plainly: Stimulation of [35S]GTPγS binding, DOR. To be noted: [35S]GTPγS binding, C6-DOR membranes; mean ± standard error. The test is classed as biochemical. The protocol: as §1, §3
In the case of `CC(=O)N1CC[C@@H](NC(=O)[C@@H](N)Cc2c(C)cc(O)cc2C)c2cc(CN3CCc4cccc(C(F)(F)F)c4C3)ccc21` [Compound 1066], the “EC50 (nm) DOR” value is on record as “dns”.
`Cc1cc(O)cc(C)c1C[C@H](N)C(=O)N(C)[C@@H]1CCNc2ccc(Cc3ccccc3)cc21` [Compound 1001]: a half-maximal response (EC50) required 410 ± 138 nM.

The same test, now with this note: [35S]GTPγS maximal stimulation compared with 10 μM standard DPDPE.
Turning to `CC(=O)N1CC[C@@H](NC(=O)[C@@H](N)Cc2c(C)cc(O)cc2C)c2cc(CN3CCc4cccc(C(F)(F)F)c4C3)ccc21` [Compound 1066], the “% stimulation DOR” value is “dns”.
Regarding `Cc1cc(O)cc(C)c1C[C@H](N)C(=O)N(C)[C@@H]1CCNc2ccc(Cc3ccccc3)cc21` [Compound 1001], the Emax was found to be 12.6 ± 5.5%.
As to `CCCCCc1ccc2c(c1)[C@H](NC(=O)[C@@H](N)Cc1c(C)cc(O)cc1C)CCN2` [Compound 1013], the Emax came out at 0%.

The target in another test is T3, human κ (CHO-KOR) opioid receptor. Nature of the test: Stimulation of [35S]GTPγS binding, KOR. The test is classed as biochemical. To be noted: [35S]GTPγS binding, CHO-KOR membranes; mean ± standard error. The protocol: as §1, §3
As for `CC(=O)N1CC[C@@H](NC(=O)[C@@H](N)Cc2c(C)cc(O)cc2C)c2cc(CN3CCc4cccc(C(F)(F)F)c4C3)ccc21` [Compound 1066], the “EC50 (nm) KOR” value is given as “dns”.
`Cc1cc(O)cc(C)c1C[C@H](N)C(=O)N(C)[C@@H]1CCNc2ccc(Cc3ccccc3)cc21` [Compound 1001]: a half-maximal response (EC50) required 488 ± 142 nM.
`CCCCCc1ccc2c(c1)[C@H](NC(=O)[C@@H](N)Cc1c(C)cc(O)cc1C)CCN2` [Compound 1013] had an EC50 of 543 ± 148 nM.
In the case of `CCCc1cc(Br)cc2c1NCC[C@H]2NC(=O)[C@@H](N)Cc1c(C)cc(O)cc1C` [Compound 1058], the “EC50 (nm) KOR” value is “dns”.

Still in this test, the particulars now being: [35S]GTPγS maximal stimulation compared with 10 μM standard U-69,593.
Consider `CC(=O)N1CC[C@@H](NC(=O)[C@@H](N)Cc2c(C)cc(O)cc2C)c2cc(CN3CCc4cccc(C(F)(F)F)c4C3)ccc21` [Compound 1066], for which the “% stimulation KOR” value was “dns”.
`Cc1cc(O)cc(C)c1C[C@H](N)C(=O)N(C)[C@@H]1CCNc2ccc(Cc3ccccc3)cc21` [Compound 1001]: the Emax is 3.9 ± 0.9%.
On the same count and under the same terms, the value for `CCCCCc1ccc2c(c1)[C@H](NC(=O)[C@@H](N)Cc1c(C)cc(O)cc1C)CCN2` [Compound 1013] was 23.7 ± 0.83%.
Take `CCCc1cc(Br)cc2c1NCC[C@H]2NC(=O)[C@@H](N)Cc1c(C)cc(O)cc1C` [Compound 1058]: the “% stimulation KOR” value is given as “dns”.
